The text below walks through data of ChEMBL document CHEMBL1144848, “Interaction of a cyclostreptin analogue with the microtubule taxoid site: the covalent reaction rapidly follows binding” (J Nat Prod, 2008).

SMILES strings stand for the structures. Active and inactive are the calls of the source. The rule behind the calls is not given here.

Test [1] is filed under the species Bos taurus. Put plainly: Binding affinity to bovine microtubules assessed as drug level in bound to per mole taxoid site at <=0 degC after 60 mins by covalent binding assay.
Test [2] is filed under the species Bos taurus. The test can be described thus: Binding affinity to bovine microtubules assessed as drug level in bound to per mole taxoid site at <=0 degC after 1 min by total binding assay.
For test [3], the species on record is Bos taurus. The test can be described thus: Binding affinity to bovine tubulin assessed as drug level in bound to per mole of colchicine site at <=20 degC after 1 min by covalent binding assay.
The species named for test [4] is Bos taurus. Put plainly: Binding affinity to bovine tubulin at 5 uM in <=20 degC after 60 mins. The settings on record: tested as the 14C-labelled form.
The species entered for test [5] is Bos taurus. The test can be described thus: Binding affinity to bovine tubulin at 5 uM in <=0 degC after 60 mins. To be noted: tested as the 14C-labelled form.
Test [6] is filed under the species Bos taurus. Put plainly: Binding affinity to bovine microtubules assessed as drug level in bound to per mole taxoid site at <=0 degC after 1 min by covalent binding assay.
The species entered for test [7] is Bos taurus. Put plainly: Binding affinity to bovine microtubules assessed as drug level in bound to taxoid site at <=0 degC after 60 mins by covalent binding assay.
Test [8] is filed under the species Bos taurus. The test can be described thus: Binding affinity to bovine microtubules assessed as drug level in bound to taxoid site at <=0 degC after 1 min by covalent binding assay.
The species named for test [9] is Bos taurus. The test can be described thus: Binding affinity to bovine microtubules assessed as drug level in bound to per mole taxoid site at <=0 degC after 60 mins by total binding assay.
The species entered for test [10] is Bos taurus. The test can be described thus: Binding affinity to bovine tubulin assessed as drug level in bound to per mole of colchicine site at <=20 degC after 1 min by total binding assay.
The species entered for test [11] is Bos taurus. Put plainly: Binding affinity to bovine microtubules assessed as drug level in bound to taxoid site at <=20 degC after 1 min by total binding assay.
The species named for test [12] is Bos taurus. Put plainly: Binding affinity to bovine microtubules assessed as drug level in bound to taxoid site at <=20 degC after 60 mins by total binding assay.
The species named for test [13] is Bos taurus. The test can be described thus: Binding affinity to bovine tubulin assessed as drug level in bound to per mole of colchicine site at <=0 degC after 60 mins by total binding assay.
The species named for test [14] is Bos taurus. Put plainly: Binding affinity to bovine tubulin assessed as drug level in bound to per mole of colchicine site at <=0 degC after 1 min by total binding assay.
The species entered for test [15] is Bos taurus. Put plainly: Binding affinity to bovine tubulin assessed as drug level in bound to per mole of colchicine site at <=20 degC after 60 mins by total binding assay.
The species named for test [16] is Bos taurus. Put plainly: Binding affinity to bovine tubulin assessed as drug level in bound to per mole of colchicine site at <=20 degC after 60 mins by covalent binding assay.
The species entered for test [17] is Bos taurus. Put plainly: Enhancement of bovine tubulin stability at <=0 degC.

`CC(=O)O[C@H]1[C@H](C)[C@@H](O)[C@H]2[C@H]1C=C(C)[C@@H]1C[C@@H]3[C@@H](C4=C5O[C@]3(C)CC[C@H](OC4=O)[C@H]5C)[C@H]21`: the Activity stood at 0.35 mol/mol in the test listed under Bos taurus [1]; 0.13 mol/mol in the test filed under Bos taurus [6]; 0.81 mol/mol in the test filed under Bos taurus [7]; 0.46 mol/mol in the test filed under Bos taurus [8]; 0.38 mol/mol in the test filed under Bos taurus [9]; 0.6 mol/mol in the test filed under Bos taurus [10]. The Activity in the test filed under Bos taurus [11] is 0.53 mol/mol; in the test filed under Bos taurus [12] it was 0.93 mol/mol; in the test filed under Bos taurus [14] it was 0.01 mol/mol; in the test listed under Bos taurus [16], 0.88 mol/mol. Further, the stoichiometry in the test filed under Bos taurus [2] was determined as 0.14 mol/mol; in the test listed under Bos taurus [3] it was 0.7 mol/mol; in the test listed under Bos taurus [13], 0.06 mol/mol; in the test listed under Bos taurus [15], 0.81 mol/mol. The outcome in the test listed under Bos taurus [4] and in the test filed under Bos taurus [5] was inactive.

In the case of `CC(=O)O[C@H]1C(=O)[C@@]2(C)[C@H]([C@H](OC(=O)c3ccccc3)[C@]3(O)C[C@H](OC(=O)[C@H](O)[C@@H](NC(=O)c4ccccc4)c4ccccc4)C(C)=C1C3(C)C)[C@]1(OC(C)=O)CO[C@@H]1C[C@@H]2O`, in the test filed under Bos taurus [17], the result was Active.
